Test results published in patent US12215173B2, “Kappa opioid receptor peptide amide ligands” (priority 2019, dated 2025).
Read-outs that look alike come from different tables or passages of the source. Square brackets hold non-standard residues; d marks the D form. Peptide text beside a SMILES is read from it. * marks the point of attachment. Piperidin1yl(4-NH2,4-CO2Me) = COC(=O)C1(N)CCN(*)CC1

Experiments:
[1] = molecular target: recombinant human delta (DOR) opioid receptor (Homo sapiens (Human), UniProt P41143); experiment: Opioid receptor radioligand binding assay, DOR
[2] = molecular target: Opioid Kappa Receptor (recombinant human, HEK293 cells) (Homo sapiens (Human), UniProt P41145); experiment: cell-based; settings: read-out: EC50
[3] = molecular target: recombinant human mu (MOR) opioid receptor (Homo sapiens (Human), UniProt P35372); experiment: Opioid receptor radioligand binding assay, MOR
[4] = molecular target: recombinant human kappa (KOR) opioid receptor (Homo sapiens (Human), UniProt P41145); experiment: biochemical; format: binding; settings: HEK293 cell membranes, 0.5 nM [3H]diprenorphine
[5] = HEK293 cell membranes, 0.5 nM [3H]DADLE, read-out: DOR, IC50
[6] = HEK293 cell membranes, 0.5 nM [3H]DAMGO, read-out: MOR, IC50

recombinant human delta (DOR) opioid receptor, sequence (P41143 whole entry, looked up): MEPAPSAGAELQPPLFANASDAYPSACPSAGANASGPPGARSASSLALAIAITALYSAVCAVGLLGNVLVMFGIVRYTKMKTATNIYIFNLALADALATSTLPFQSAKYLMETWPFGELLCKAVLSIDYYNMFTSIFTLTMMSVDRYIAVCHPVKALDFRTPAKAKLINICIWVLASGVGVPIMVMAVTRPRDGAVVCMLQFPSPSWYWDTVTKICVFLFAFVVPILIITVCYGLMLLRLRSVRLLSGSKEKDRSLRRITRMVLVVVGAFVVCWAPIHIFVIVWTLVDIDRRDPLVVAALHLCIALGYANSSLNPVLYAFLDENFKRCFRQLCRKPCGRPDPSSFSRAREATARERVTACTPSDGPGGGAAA

| Structure (SMILES) | IC50 [1] | EC50 [2] | IC50 [3] | IC50 [4] | IC50 [1, 5] | IC50 [3, 6] |
| --- | --- | --- | --- | --- | --- | --- |
| CC(=O)N[C@@H](CCC(N)=O)C(=O)NC1CCN(C(=O)[C@@H](CCCCN)NC(=O)[C@@H](CC(C)C)NC(=O)[C@@H](Cc2ccccc2)NC(=O)[C@H](N)Cc2ccccc2)CC1 [Compound 13-56] | > 10000 nM | 16.7 nM | > 10000 nM | 0.35 nM |  |  |
| CNC(=O)N1CCN(C(=O)[C@@H](CCCCN)NC(=O)[C@@H](CC(C)C)NC(=O)[C@@H](Cc2ccccc2)NC(=O)[C@H](N)Cc2ccccc2)CC1 [Compound 13-58] |  | 10.8 nM |  | 0.29 nM | > 10000 nM | > 10000 nM |
| CC(C)C[C@@H](NC(=O)[C@@H](Cc1ccccc1)NC(=O)[C@H](N)Cc1ccccc1)C(=O)N[C@H](CCCCN)C(=O)N1CCN(C(=O)N(C)C)CC1 [Compound 13-59] |  | 14.3 nM |  | 0.36 nM | > 10000 nM | > 10000 nM |
| CNC(=O)NC1CCN(C(=O)[C@@H](CCCCN)NC(=O)[C@@H](CC(C)C)NC(=O)[C@@H](Cc2ccccc2)NC(=O)[C@H](N)Cc2ccccc2)CC1 [Compound 13-60] | > 10000 nM | 14.3 nM | > 10000 nM | 0.42 nM |  |  |
| COC(=O)C1(N)CCN(C(=O)[C@@H](CCCCN)NC(=O)[C@@H](CC(C)C)NC(=O)[C@@H](Cc2ccccc2)NC(=O)[C@H](N)Cc2ccccc2)C1 (some centres unmarked) [Compound 13-62] | > 10000 nM | 2.96 nM | > 10000 nM | 0.2 nM |  |  |
| CC(C)C[C@@H](NC(=O)[C@@H](Cc1ccccc1)NC(=O)[C@H](N)Cc1ccccc1)C(=O)N[C@H](CCCCN)C(=O)N1CC(=O)NC(=O)C1 [Compound 13-63] |  | 5.2 nM |  | 1.81 nM | > 10000 nM | > 10000 nM |
| CCNC(=O)N1CCN(C(=O)[C@@H](CCCCN)NC(=O)[C@@H](CC(C)C)NC(=O)[C@@H](Cc2ccccc2)NC(=O)[C@H](N)Cc2ccccc2)CC1 [Compound 13-64] |  | 2.91 nM |  | 0.47 nM | > 10000 nM | > 10000 nM |
| CCOC(=O)C1(N)CCN(C(=O)[C@@H](CCCCN)NC(=O)[C@@H](CC(C)C)NC(=O)[C@@H](Cc2ccccc2)NC(=O)[C@H](N)Cc2ccccc2)C1 (some centres unmarked) [Compound 35] | > 10000 nM | 11.7 nM | 8180 nM | 0.19 nM |  |  |
| CC(C)C[C@@H](NC(=O)[C@@H](Cc1ccccc1)NC(=O)[C@H](N)Cc1ccccc1)C(=O)N[C@H](CCCCN)C(=O)N1CCC(N)(C(=O)OC2CC2)C1 (some centres unmarked) [Compound 40] | > 1000 nM | 11.9 nM | > 10000 nM | 0.41 nM |  |  |
| COCCOC(=O)C1(N)CCN(C(=O)[C@@H](CCCCN)NC(=O)[C@@H](CC(C)C)NC(=O)[C@@H](Cc2ccccc2)NC(=O)[C@H](N)Cc2ccccc2)C1 (some centres unmarked) [Compound 45] |  | 30.2 nM |  | 0.33 nM | > 10000 nM | 7370 nM |
| CC(C)C[C@@H](NC(=O)[C@@H](Cc1ccccc1)NC(=O)[C@H](N)Cc1ccccc1)C(=O)N[C@H](CCCCN)C(=O)N1CCC(N)(C(=O)OCCO)C1 (some centres unmarked) [Compound 50] |  | 9.07 nM |  | 0.39 nM | > 10000 nM | 7530 nM |
| CC(C)C[C@@H](NC(=O)[C@@H](Cc1ccccc1)NC(=O)[C@H](N)Cc1ccccc1)C(=O)N[C@H](CCCCN)C(=O)N1CCC(N)(C(=O)OCCN)C1 (some centres unmarked) [Compound 55] |  | 9.36 nM |  | 0.45 nM | > 10000 nM | 8530 nM |
| CNCCOC(=O)C1(N)CCN(C(=O)[C@@H](CCCCN)NC(=O)[C@@H](CC(C)C)NC(=O)[C@@H](Cc2ccccc2)NC(=O)[C@H](N)Cc2ccccc2)C1 (some centres unmarked) [Compound 60] |  | 7.19 nM |  | 0.94 nM | > 10000 nM | > 10000 nM |
| COC(=O)C1(N)CCN(C(=O)CNC(=O)[C@@H](CCCCN)NC(=O)[C@@H](CC(C)C)NC(=O)[C@@H](Cc2ccccc2)NC(=O)[C@H](N)Cc2ccccc2)CC1 [Compound 66] (H-[dF][dF][dL][dK]G-{Piperidin1yl(4-NH2,4-CO2Me)}) | > 10000 nM | 12.9 nM | 307 nM | 20.9 nM |  |  |
